Data: patent US11911387B2, “Vasoprotective and cardioprotective antidiabetic therapy” (Boehringer Ingelheim International GmbH, priority 2010, dated 2024)
Entries after “also recorded” stand apart in the source; their conditions may differ. Marks after values point to notes of the source that are not given here.

Legend:
[1] = test system: isolated aortic ring segments; assay: Direct vasodilatory effects, isometric tension recording in isolated aortic ring segments; parameters: species or system rats; conditions: cumulative concentrations 1 nM to 32 or 100 μM; versus DMSO
Protocol: FIGS. 9A and 9B show direct vasodilatory effects of gliptins. […] The data are mean±SEM of 12 (FIG. 9A) or 4 (FIG. 9B) aortic rings from 10 rats in total: p<0.05 vs. DMSO (solvent control); ^#p<0.05 vs. sita-/vildagliptin, and ^§, p<0.05 vs. saxa-/alogliptin.
Direct vasodilatory effects of gliptins are measured by the isometric tension technique in isolated aortic ring segments. […] In addition reactive oxygen and nitrogen species (RONS) formation is determined in isolated cardiac mitochondria and LPS or PDBu-triggered oxidative burst in whole blood.

[2] = test system: T2DM patients on stable metformin; conditions: for adjusted mean HbA1c change from baseline: PP population, linagliptin 5 mg/day, glimepiride mean dose 3 mg/day, added to metformin
nitrate tolerant rats = assay: Rat model of nitroglycerin-induced nitrate tolerance, oral linagliptin; format: in vivo
Protocol: (§1) Direct vasodilatory effects of gliptins are measured by the isometric tension technique in isolated aortic ring segments. […]. In addition reactive oxygen and nitrogen species (RONS) formation is determined in isolated cardiac mitochondria and LPS or PDBu-triggered oxidative burst in whole blood. […].

[3] = test system: isolated human leukocytes (PMN); assay: Oxidative burst (NADPH oxidase activation) in isolated human leukocytes (PMN); format: cell-based
Protocol: In FIG. 4, within each setting of inhibition of oxidative burst, the first bar from left refers to activation by LPS and the second bar refers to activation by Zymosan A.
In FIG. 6, within each setting of LPS stimulation, the first bar from left refers to w/o gliptin, the second bar refers to 1 μM Bl 1356, the third bar refers to 10 μM Bl 1356 and the fourth bar refers to 100 μM Bl 1356.

[4] = test system: patients with type 2 diabetes; assay: Postprandial glucose excursions, safety and tolerability in patients with type 2 diabetes, multiple oral doses of BI 1356
septic rats (LPS) = assay: LPS-induced septic shock in Wistar rats, linagliptin cotherapy; format: in vivo
Protocol: as §1

[5] = test system: patients with type 2 diabetes
[6] = test system: adhesion of human neutrophils to endothelial cells (EA.hy cells); assay: Adhesion of LPS-stimulated human neutrophils to cultured endothelial cells; format: cell-based; conditions: in the presence of LPS
5/6N rats = assay: Rat model of chronic renal insufficiency (5/6 nephrectomy), GLP-1 levels and cardiac mRNA; format: in vivo; conditions: for active GLP-1 AUC(0-72 h) / active GLP-1 maximum plasma concentration (Cmax): linagliptin 3.3 mg/kg oral for 4 days
Description: At the end of the study, heart tissue is harvested for mRNA analyses.

[7] = test system: ischemia/reperfusion (I/R) rats; assay: Myocardial ischemia/reperfusion in Wistar rats, linagliptin from 30 days before I/R; format: in vivo
[8] = test system: rats fed a high-fat diet (diet induced obesity); assay: Diet induced obesity rats, body weight and MRS fat analysis; conditions: rat, in vivo
[9] = test system: peroxynitrite (authentic and Sin-1 derived); assay: Direct antioxidant effect: peroxynitrite formation/-mediated nitration; format: biochemical
[10] = Pharmacokinetics of BI 1356, multiple oral doses once daily for 12 days in patients with type 2 diabetes; conditions: for feT, SS: steady state (Day 12); for feT, SS / fe0-24: gMean
[11] = test system: hydrogen peroxide/peroxidase system; assay: Direct antioxidant effect: hydrogen peroxide/peroxidase mediated 1-electron-oxidation; format: biochemical
[12] = test system: diabetic eNOS knockout C57BL/6J mice; assay: ARB-resistant diabetic nephropathy in diabetic eNOS knockout C57BL/6J mice, 12 weeks; format: in vivo; conditions: for albuminuria (urinary albumin excretion per 24 h): telmisartan 1 mg/kg, linagliptin 3 mg/kg; for glomerulosclerosis in the kidney, histological score: compared with diabetic controls, p<0.05
Description: Fourteen mice are used as non-diabetic controls. After 12 weeks, urine and blood are obtained and blood pressure measured.

diabetic eNOS ko mice = assay: Diabetic nephropathy in STZ-diabetic eNOS ko mice, 4 weeks treatment; format: in vivo; conditions: STZ treated animals, linagliptin 3 mg/kg, telmisartan 1 mg/kg p.o.
Description: Endothelial damage is characteristic for type 2 diabetes and contributes to the development of end stage kidney disease. Further, vascular endothelial NO synthase (eNOS) activity is altered in T2D and genetic abnormalities in the respected gene (NOS3) are associated with the development of advanced diabetic nephropathy (DN) in patients with type 1 and type 2 diabetes. The use of low dose STZ to induce T2D in this genetic phenotype (eNOS−/−) has been recently reported (Brosius et al, JASN 2009) to be a valid experimental model for DN. Eight week old eNOS −/− mice are rendered diabetic with intraperitoneal injections of streptozotocin (100 mg/kg per day for two consecutive days). Development of diabetes (defined by blood glucose>250 mg/dl) is verified one week after streptozotocin injection. No insulin is given because that could prevent the development of diabetic nephropathy. Mice are treated for 4 weeks with:
1) Non-diabetic eNOS ko control mice, placebo (natrosol) (n=14)
2) sham treated diabetic eNOS ko mice, placebo (natrosol) (n=17)
3) Telmisartan (p.o. 1 mg/kg) treated diabetic eNOS ko mice (n=17)
Renal function (s-creatinine, albuminuria) and blood glucose level are detected.

NOD mice = assay: Onset of diabetes and beta-cell mass in non-obese-diabetic (NOD) mice, 60 days; format: in vivo
Description: Though reduced pancreatic T-cell migration and altered cytokine production is considered important players for the onset of insulinitis the exact mechanism and effects on the pancreatic cell pool is still incompletely understood.
Bi-weekly plasma samples are obtained to determine onset of diabetes (BG>11 mmol/l).

2K1C-rats = assay: Two-kidney-one clip reno-vascular hypertension (2K1C) rat model, systolic blood pressure; format: in vivo; conditions: 3 months; telmisartan 10 mg/kg, linagliptin 89 ppm in chow
Description: We hypothesize that glucose/energy supply is particularly important in the failing heart that is characterized by cardiac hypertrophy. Inadequate energy supply is considered as one of the most important steps from compensated to decompensated left ventricular hypertrophy resulting in heart failure. A classical model of hypertension induced left ventricular hypertrophy that results on the long run in left ventricular failure and pathological remodeling is the two-kidney-one clip reno-vascular hypertension (Goldblatt) model (2K1C model).
[…]. Non-invasive, systolic blood pressure is measured in all groups to the time points (1. before treatment; 2. after 1 weeks 3. after 4 weeks; 4. after 6 weeks 5. after 12 weeks; and 6. after 6 weeks of treatment with the respective compounds.

[13] = test system: superoxide formation from xanthine oxidase; assay: Direct antioxidant effect: superoxide formation from xanthine oxidase

Cn1c(=O)cc(N2CCC[C@@H](N)C2)n(Cc2ccccc2C#N)c1=O [alogliptin]
direct vasodilatory effect (induction of vasodilation), ranking [1]: directly followed by alogliptin and vildagliptin

CCC1=C(C)CN(C(=O)NCCc2ccc(S(=O)(=O)NC(=O)N[C@H]3CC[C@H](C)CC3)cc2)C1=O [glimepiride, reference compound]
adjusted mean HbA1c change from baseline ([2]; 2 years): −0.5%
patients with investigator-defined, drug-related hypoglycemia ([2]; human, in vivo, 2 years): 36.1%
body weight change ([2]; in vivo): +1.3 kg

CC#CCn1c(N2CCC[C@@H](N)C2)nc2c1c(=O)n(Cc1nc(C)c3ccccc3n1)c(=O)n2C [linagliptin]
cardiac mitochondrial ROS formation and whole blood LPS/zymosan A-triggered oxidative burst (nitrate tolerant rats; nitrate-tolerant rats): improved; also recorded: minor improvement
nitrate tolerance (nitrate tolerant rats; nitroglycerin treated rats): not altered
endothelial dysfunction (endothelium dependent relaxation) (nitrate tolerant rats; nitroglycerin treated rats, linagliptin 3-10 mg/kg/d by diet 7 d): significantly improved
body weight of the animals (nitrate tolerant rats; rat, in vivo): Neither nitroglycerin nor linagliptin treatment has effects
blood glucose levels (nitrate tolerant rats; slightly increased in the nitroglycerin group): normalized
adjusted mean HbA1c change from baseline ([2]; 2 years): −0.4%
patients with investigator-defined, drug-related hypoglycemia ([2]; human, in vivo, 2 years): 7.5%
relative risk for the combined CV endpoint (RR) ([2]; human, in vivo, 2 years): 0.50
body weight change ([2]; in vivo): -1.4 kg
body weight, adjusted mean difference ([2]; in vivo): -2.7 kg
mean between-group difference in HbA1c change ([2]; linagliptin vs glimepiride, p=0.0001 for noninferiority): 0.17%
PMN derived RONS signal, L-012 enhanced chemiluminescence ([3]; LPS 0.5, 5 and 50 μg/ml): suppresses the signal concentration-dependently
inhibition of oxidative burst ([3]; NADPH oxidase activation by LPS and zymosan A, compared with other gliptins): best inhibition
suppression of LPS or zymosan A-triggered oxidative burst, luminol/peroxidase enhanced chemiluminescence ([3]; versus nebivolol): as efficient as nebivolol
suppression of LPS or zymosan A-triggered oxidative burst, luminol/peroxidase enhanced chemiluminescence ([3]; versus other gliptins): much more efficient
decrease in 2 h postprandial blood glucose excursions ([4]; already on Day 1, doses ≥2.5 mg): 80%
safety and tolerability ([4]; people with type 2 diabetes): placebo-like safety and tolerability
endothelial dysfunction (endothelium-dependent relaxation) (septic rats (LPS); LPS treated rats): significantly improved
vascular function (Ach-, GTN-, and diethylamine NONOate-dependent relaxation) (septic rats (LPS); impaired by LPS): almost normalized
mitochondrial and whole blood (LPS, PDBu-stimulated) RONS production (septic rats (LPS); increased by LPS): improved
vascular oxidative stress (DHE) and markers of vascular inflammation (VCAM-1, Cox-2, NOS-2) (septic rats (LPS); increased by LPS): significantly improved
increase of plasma GLP-1 levels (septic rats (LPS); rat, in vivo): ~10 fold
Primary CV endpoint, incidence rate/1000 pt-yr ([5]; in vivo): 5.3 /1000 pt-yr
All adjudicated CV events, Hazard ratio (95% CI) ([5]; linagliptin vs comparator): 0.55 (0.33, 0.94)*
FDA-custom MACE, Hazard ratio (95% CI) ([5]; linagliptin vs comparator): 0.34 (0.15, 0.75)*
Hospitalization for UAP, Hazard ratio (95% CI) ([5]; linagliptin vs comparator): 0.24 (0.02, 2.34)
Primary CV endpoint, Hazard ratio (Cox proportional model) (95% CI) ([5]; linagliptin vs comparator): 0.34 (0.16, 0.70)*
Transient ischemic attack, Hazard ratio (95% CI) ([5]; linagliptin vs comparator): 0.17 (0.02, 1.53)
Primary CV endpoint, % ([5]; n = 3319): 0.3%
All adjudicated CV events, incidence rate/1000 pt-yr ([5]; secondary endpoint): 12.6 /1000 pt-yr
FDA-custom MACE, incidence rate/1000 pt-yr ([5]; secondary endpoint): 4.3 /1000 pt-yr
Hospitalization for UAP, incidence rate/1000 pt-yr ([5]; tertiary endpoint): 0.5 /1000 pt-yr
Non-fatal MI, incidence rate/1000 pt-yr ([5]; tertiary endpoint): 2.9 /1000 pt-yr
Non-fatal stroke, incidence rate/1000 pt-yr ([5]; tertiary endpoint): 1.0 /1000 pt-yr
Transient ischemic attack, incidence rate/1000 pt-yr ([5]; tertiary endpoint): 0.5 /1000 pt-yr
leukocyte adhesion to endothelial cells [6]: suppresses leukocyte adhesion
active GLP-1 AUC(0-72 h) (5/6N rats; 5/6N animals): 201 pg·h/mL
active GLP-1 maximum plasma concentration (Cmax) (5/6N rats; 5/6N animals): 6.36 ± 2.58 pg/mL
cardiac mRNA levels of TGF-β, TIMP-1, collagens 1α1 and 3α1 and BNP (5/6N rats; increased in 5/6N versus sham, all p<0.05): reduced or even normalized
increase of the AUC of GLP-1 (5/6N rats; rat model of renal failure): approximately twofold
active GLP-1 AUC(0-72 h) (5/6N rats; sham animals): 114 pg·h/mL
active GLP-1 maximum plasma concentration (Cmax) (5/6N rats; sham animals): 3.91 ± 1.86 pg/mL
proportion of infarcted tissue relative to the total area at risk ([7]; 3 mg/kg once daily from 30 days before I/R, p<0.001): −21%
absolute infarction size ([7]; 3 mg/kg once daily, p<0.05): −18%
isovolumetric contractility index dP/dTmin ([7]; after 60 days): −4957±73 mmHg/s
glucagon-like peptide-1 (GLP-1) levels increased ([7]; p<0.0001): 18 fold
steatosis, inflammation and fibrosis in the liver, histological scoring [8]: reduction
suppression in response to peroxynitrite formation/-mediated nitration [9]: Minor (but significant) suppression
feT, SS ([10]; 1 mg once daily oral): 3.34%
fe0-24 ([10]; 2.5 mg once daily oral): 0.139%
feT, SS ([10]; 2.5 mg once daily oral): 3.06%
fe0-24 ([10]; 5 mg once daily oral): 0.453%
feT, SS ([10]; 5 mg once daily oral): 6.27%
fe0-24 ([10]; 10 mg once daily oral): 0.919%
feT, SS ([10]; 10 mg once daily oral): 3.22%
mean accumulation ratio RA,AUC ([10]; doses above 1 mg once daily): ≤ 1.4
route of excretion ([10]; human, in vivo): primarily excreted unchanged via the bile
excreted via the kidney ([10]; therapeutic oral dose levels): < 7 % of the administered oral dose
interference with 1-electron-oxidations by the hydrogen peroxide/peroxidase system [11]: most potent compound
plasma osteopontin levels ([12]; 12 weeks): significantly lower
albuminuria (urinary albumin excretion per 24 h) ([12]; 12 weeks): 120.8±37.7 μg/24 h
glomerulosclerosis in the kidney, histological score [12]: 2.1+/−0.0
direct vasodilatory effect (induction of vasodilation), ranking [1]: most potent compound
blood sugar versus placebo (diabetic eNOS ko mice): No significant differences
incidence of diabetes at the end of the study period (NOD mice; diet corresponding to 3-10 mg/kg p.o., 60 days, p=0.021): 9 out of 30
active plasma GLP-1 at termination (NOD mice; mouse, in vivo): higher
beta cell mass (NOD mice; p<0.01): 0.48 ± 0.09 mg

N[C@@H](CC(=O)N1CCn2c(nnc2C(F)(F)F)C1)Cc1cc(F)c(F)cc1F [sitagliptin]
direct vasodilatory effect (induction of vasodilation), ranking [1]: not more efficient in the induction of vasodilation than the solvent alone control

CCCc1nc2c(C)cc(-c3nc4ccccc4n3C)cc2n1Cc1ccc(-c2ccccc2C(=O)O)cc1 [telmisartan]
systolic blood pressure (RR systolic) (2K1C-rats): always significant versus vehicle treated animals
albuminuria, significance compared with diabetic controls ([12]; 12 weeks): not statistically significant
blood pressure ([12]; 12 weeks, mean±SEM): 111.2±2.3 mmHg
blood pressure reduction vs diabetic controls ([12]; 12 weeks, p=0.071): 5.9 mmHg
albuminuria (urinary albumin excretion per 24 h) ([12]; 12 weeks): 97.8±26.4 μg/24 h
glomerulosclerosis in the kidney, histological score [12]: not significantly different
plasma neutrophil gelatinase-associated lipocalin (NGAL) levels ([12]; compared with untreated diabetic mice): significantly increased
blood sugar versus placebo (diabetic eNOS ko mice): No significant differences

N#C[C@@H]1CCCN1C(=O)CNC12CC3CC(CC(O)(C3)C1)C2 [vildagliptin]
suppression of superoxide formation [13]: Minor (but significant) suppression
direct vasodilatory effect (induction of vasodilation), ranking [1]: directly followed by alogliptin and vildagliptin
